Data from ChEMBL document CHEMBL1687789, “Characteristics and dissemination of mosaic penicillin-binding protein 2-harboring multidrug-resistant Neisseria gonorrhoeae isolates with reduced cephalosporin susceptibility in northern Taiwan” (2010).
Converted amounts (≈) assume the structure as drawn.

Columns and labels:
Format in all cases: functional
Neisseria gonorrhoeae [1] = assay: Antimicrobial activity against multidrug-resistant Neisseria gonorrhoeae isolates assessed as resistant isolates by disk susceptibility test
Neisseria gonorrhoeae [2] = assay: Antimicrobial activity against multidrug-resistant Neisseria gonorrhoeae isolates harboring mosaic penicillin-binding protein 2 penA assessed as resistant isolates by disk susceptibility test
Neisseria gonorrhoeae [3] = assay: Antimicrobial activity against Neisseria gonorrhoeae isolates harboring non-mosaic penicillin-binding protein 2 penA assessed as resistant isolates by disk susceptibility test
Neisseria gonorrhoeae [4] = assay: Antimicrobial activity against multidrug-resistant Neisseria gonorrhoeae isolates harboring mosaic penicillin-binding protein 2 penA by Etest
Neisseria gonorrhoeae [5] = assay: Antimicrobial activity against Neisseria gonorrhoeae isolates harboring non-mosaic penicillin-binding protein 2 penA by Etest
Neisseria gonorrhoeae [6] = assay: Antimicrobial activity against multidrug-resistant Neisseria gonorrhoeae isolates by Etest

Row | Compound | Activity (Neisseria gonorrhoeae [1]) [%] | Activity (Neisseria gonorrhoeae [2]) [%] | Activity (Neisseria gonorrhoeae [3]) [%] | MIC (Neisseria gonorrhoeae [4]) [µg/mL] | MIC (Neisseria gonorrhoeae [5]) [µg/mL] | MIC (Neisseria gonorrhoeae [6]) [µg/mL]
1 | CC1(C)S[C@@H]2[C@H](NC(=O)Cc3ccccc3)C(=O)N2[C@H]1C(=O)O [PENICILLIN G] | 62.2 | 71 | 58.9 | – | – | –
2 | O=C(O)c1cn(C2CC2)c2cc(N3CCNCC3)c(F)cc2c1=O [CIPROFLOXACIN] | 88.6 | 100 | 84.3 | – | – | –
3 | CO/N=C(\C(=O)N[C@@H]1C(=O)N2C(C(=O)O)=C(CSc3nc(=O)c(O)nn3C)CS[C@H]12)c1csc(N)n1 [CEFTRIAXONE] | – | – | – | 0.023 (≈ 0.0415 µM) | 0.002 (≈ 0.00361 µM) | 0.002 (≈ 0.00361 µM)
4 | C=CC1=C(C(=O)O)N2C(=O)[C@@H](NC(=O)/C(=N\OCC(=O)O)c3csc(N)n3)[C@H]2SC1 [CEFIXIME] | – | – | – | 0.125 (≈ 0.276 µM) | 0.016 (≈ 0.0353 µM) | 0.016 (≈ 0.0353 µM)
